Laboratory results reported in US12448347B2, “Polymorphic forms of (R)-oxybutynin hydrochloride” (APNIMED, INC. (DELAWARE), priority 2020, dated 2025).

What was measured:
Assay type in all cases: physicochemical
[1] = Hygroscopicity of the isolated solids (observation); details: HCl
[2] = Solid form stability / interconversion on drying, storage or slurrying (XRPD); details: for XRPD pattern after prolonged slurrying: slurry in MIBK and in heptanes separately, RT (2 weeks)
[3] = DVS analysis (moisture sorption/desorption)
[4] = Humidity stress in open containers with XRPD analysis; details: for XRPD form after humidity exposure / appearance of solids after humidity exposure: 24 hours, open container
Experimental: Samples of R-oxybutynin HCl Form B were exposed to 75% RH and 85% RH for 24 hours, in open containers.

hygroscopicity of isolated solids [1]	crystalline form obtained after drying ([2]; dried under vacuum at RT for 24 hours)	crystalline form obtained upon storage ([2]; storage at ambient conditions)	crystalline form obtained after high temperature drying (XRPD) ([2]; vacuum drying at 50° C. (24 h, 2 days in Table 2), HCl)	hygroscopicity by DVS ([3]; DVS analysis)	physical form of post-DVS sample (XRPD) ([3]; XRPD after DVS)	weight gain (DVS) ([3]; between 75% and 95% RH)	weight change upon desorption (DVS) ([3]; desorption from 95% to 5% RH)	weight gain (DVS) ([3]; from 5% RH to 95% RH)	XRPD form after humidity exposure ([4]; 75% RH)	appearance of solids after humidity exposure ([4]; 75% RH)	XRPD form after humidity exposure ([4]; 85% RH)	appearance of solids after humidity exposure ([4]; 85% RH)	outcome of humidity stress ([4]; 93% RH)	SMILES	XRPD pattern after prolonged slurrying [2]
hygroscopic	Form B	Form B	Form C was isolated											CCN(CC)CC#CCOC(=O)[C@](O)(c1ccccc1)C1CCCCC1.Cl [Form A, (R)-oxybutynin HCl]	Form C diffraction patterns were observed
				hygroscopic	Form B remained	23%	All the weight gained was lost	26.6%	consistent with Form B	remained free flowing	composed of Form B	not free flowing	deliquesced	CCN(CC)CC#CCOC(=O)[C@](O)(c1ccccc1)C1CCCCC1.Cl [Form B, (R)-oxybutynin HCl]	Form C diffraction patterns were observed
non-hygroscopic														CCN(CC)CC#CCOC(=O)[C@](O)(c1ccccc1)C1CCCCC1.Cl [Form C, (R)-oxybutynin HCl]	
